Marks after values point to notes of the source that are not given here.

The test system of one data set is P-gp. As to the kind of experiment: MDCK bidirectional permeability assay. As to conditions: dog; for recovery: + verapamil 100 μM.
Data set [1] in a line: Caco-2 bidirectional permeability assay. As to conditions: human, Caco-2; for recovery: Caco-2, Recovery.
A further data set relates to MDCK cell monolayers. The experiment in a line: MDCK bidirectional permeability assay.
The next data set deals with Caco-2 cell monolayers. As to the kind of experiment: Caco-2 bidirectional permeability assay. A general note: Passage across Caco-2 layers is used to estimate intestinal permeability.
The test system of data set [2] is intestinal L-cell hormones (aGLP-1, tGLP-1, tGLP-2, PYY). As to the kind of experiment: Secretion of intestinal L-cell hormones in mice fed a standard diet. The class given is in vivo, C57BL/6 mice. The conditions noted are these: repeat dosing 4 days, 8 h. The protocol: Adult male C57BL/6 mice (Taconic) fed standard chow (Harlan Teklad 2018) were dosed orally with vehicle (2% DMSO, 10% HPβCD, 10 mM PBS-HCl) or RDX8940 in separate experiments, as described below. After dosing, mice were anesthetized, and blood was collected via cardiac puncture into K3EDTA-containing tubes (Greiner Bio-one); then, the mice were euthanized. If active GLP-1 (aGLP-1) concentrations were measured, sitagliptin and aprotinin were added to the tubes before blood collection. Blood was processed to plasma for the measurement of incretins; aGLP-1, tGLP-1, and PYY concentrations were assessed using MSD immunoassays (Meso Scale Discovery), whereas total GLP-2 (tGLP-2) concentrations were quantified using a mouse GLP-2 ELISA (ALPCO, Salem, NH).
In the first experiment, mice were administered vehicle or a single dose of RDX8940 (10, 30, or 100 mg/kg), fasted, and plasma tGLP-1 concentrations were measured 8 h after dose. In a second experiment, mice were administered repeated doses of vehicle or RDX8940 30 mg/kg twice daily over 4 days. After the last dose, the mice were fasted and plasma tGLP-1 concentrations were measured 8 h later. […] After the single or last dose, the mice were fasted, and plasma concentrations of aGLP-1, tGLP-1, tGLP-2, and PYY were measured 8, 10, and 12 h later. […]

The test system of data set [3] is C57BL/6 mice fed Western diet. As to the kind of experiment: Western diet-fed mice (NAFLD and mild insulin resistance model). It is filed as in vivo. As to conditions: for 4-h fasted plasma glucose vs vehicle: days 15 and 29, agent alone. Here is the method: Six-week-old male C57BL/6 mice (Taconic) were fed Western diet chow (Harlan Teklad TD.88137, 21.2% fat, 0.2% cholesterol, 42.0% kcal from fat) for 10 wk to model NAFLD and mild insulin resistance. […] An additional vehicle (administered orally twice daily) control group (lean) was fed standard chow (Harlan Teklad 2018) throughout the study (n = 10). […], mice were fasted for 4 h after the first dose, and blood was then collected via the tail vein for measurement of plasma glucose and insulin concentrations using a glucometer (Abbott Animal Health, Abbott Park, IL) and an MSD immunoassay (Meso Scale Discovery), respectively. On day 29, mice were fasted longer (a total of 7–8 h), were anesthetized, and had blood collected via cardiac puncture for the measurement of GLP-1 levels. Mice were then euthanized under anesthesia for the collection of liver tissue. Hepatic triglyceride and cholesterol content were determined at the University of California, Davis, CA, using the Folch method ([17]).

For another data set, the system named is gallbladder emptying. As to the kind of experiment: Gallbladder emptying in mice. The conditions noted are these: CD-1 mice, single oral dose; RDX8940 30 and 100 mg/kg, INT-777 30 mg/kg.
In a further data set the test system is C57BL/6 mice fed HFCD. The experiment in a line: GLP-1 and GLP-2 agonists in HFCD-fed mice. It is filed as in vivo. As to conditions: for Plasma glucose: 4-h fasted; for Plasma glucose / Plasma total cholesterol / Plasma triglycerides: day 28, means ± SE; for Plasma total bilirubin levels: data not shown; for Body weight: day 33, liraglutide 200 µg/kg or teduglutide 400 µg/kg sc twice daily, means ± SE; for Plasma insulin: day 34, means ± SE; for HFCD-increased hepatic expression of genes involved in inflammation and fibrotic processes: liver RNA sequencing. Here is the method:
At 19 wk old, mice began treatment. […] Mice were weighed each week. Before treatment and on days 14 and 28 of treatment, the mice were fasted for 4 h, and blood was then collected via the tail vein and processed to plasma for measurement of alanine aminotransferase (ALT), aspartate aminotransferase (AST), alkaline phosphatase (AP), glucose, triglycerides, and total cholesterol using an ACE Axcel clinical analyzer (Alfa Wassermann, West Caldwell, NJ). After 34 days of treatment, the mice were fasted for 6–8 h and were euthanized under anesthesia. Blood was collected and processed to plasma for measurement of insulin [using an MSD immunoassay (Meso Scale Discovery)], and ALT, AST, AP, and total bilirubin levels [using an ACE Axcel clinical analyzer (Alfa Wassermann)]. The entire liver was collected and weighed, and samples of liver were weighed for measurement of triglycerides and total cholesterol levels at University of California, Davis, CA [using the Folch method ([17])]; histological assessments of steatosis, inflammation, and fibrosis were performed using hematoxylin-and-eosin stains, and Sirius red stains (Wax-it Histology Services, Vancouver, BC, Canada and Pacific Tox Path, Ellensburg, WA). Scoring of hepatic pathology was conducted according to descriptions provided by Thoolen et al. ([32]). For gene expression studies, total RNA from mouse liver tissues was isolated using a RNeasy 96 universal tissue kit (Qiagen, Hilden, Germany). A gene expression library was prepared with 100 ng of each RNA sample using a TruSeq Stranded mRNA Library NeoPrep kit (Illumina, Hayward, CA). Library samples were subsequently multiplexed and sequenced using an Illumina NextSeq 500 sequencer (San Diego, CA). Sequences of two 75-base pair ends were obtained for all samples and mapped to the mouse transcriptome, using STAR (Spliced Transcripts Alignment to a Reference) alignment with default parameters (Basespace Cloud, Illumina) and normalized using trimmed mean of M-values method in EdgeR software (Bioconductor; https://www.bioconductor.org/). Differentiation gene expression analysis was evaluated using EdgeR. R platform (https://www.r-project.org/) was used for principal component analysis and heat map analysis. Gene ontology and network correlation analysis were performed using Gorilla (http://cbl-gorilla.cs.technion.ac.il/) and WGNCA (https://horvath.genetics.ucla.edu/html/CoexpressionNetwork/Rpackages/WGCNA/).

`COc1cc2c(c(OC)c1OC)-c1ccc(OC)c(=O)cc1[C@@H](NC(C)=O)CC2` [Colchicine]: the Papp A→B at 10 µM in the data set on P-gp turned out to be 0.85 ×10⁻⁶ cm/s; in data set [1], 0.23 ×10⁻⁶ cm/s. Also, the Papp B→A at 10 µM in the data set with P-gp was 2.31 ×10⁻⁶ cm/s; in data set [1], 6.18 ×10⁻⁶ cm/s. Further, the results for the efflux ratio at 10 µM (in the data set with P-gp; in data set [1]) were 2.72 and 27.4, respectively. The recovery with P-gp (A→B) is 120%; in the data set with P-gp (B→A), 113%; in data set [1] (A→B), 69%; in data set [1] (B→A), 80%.
Turning to `CC(CCc1ccccc1)NCC(O)c1ccc(O)c(C(N)=O)c1` (stereo not shown) [Labetalol], in data set [1], the Papp A→B at 10 µM was 19.4 ×10⁻⁶ cm/s and the Papp B→A at 10 µM turned out to be 31.6 ×10⁻⁶ cm/s. Besides, the recovery in data set [1] (A→B) stood at 64%. For the same compound, in data set [1] (B→A), the recovery was 80%.
Consider `CC(C)NCC(O)COc1cccc2ccccc12` (stereo not shown) [Propranolol], for which the “Papp A→B” value with MDCK cell monolayers (10 μM, without verapamil) worked out at 14.19 cm/s × 10^−6; in the data set on Caco-2 cell monolayers (Caco-2, 10 μM), 67.06 cm/s × 10^−6. In addition, the “Papp B→A” value in the data set with MDCK cell monolayers (10 μM, without verapamil) is on record as 7.03 cm/s × 10^−6; in the data set on Caco-2 cell monolayers (Caco-2, 10 μM), 19.62 cm/s × 10^−6. Besides, the “Recovery, B→A” value in the data set with MDCK cell monolayers (+ verapamil 100 μM) came to 98%; with Caco-2 cell monolayers (Caco-2), 78%. The “Recovery, A→B” value in the data set with Caco-2 cell monolayers (Caco-2) came to 56%.
Regarding `CNC(=C[N+](=O)[O-])NCCSCc1ccc(CN(C)C)o1` [Ranitidine], in data set [1], the Papp A→B at 10 µM was 0.91 ×10⁻⁶ cm/s; the Papp B→A at 10 µM stood at 3.02 ×10⁻⁶ cm/s; the efflux ratio (in general, the permeability from basolateral to apical divided by that in the opposite direction, in the common usage) at 10 µM is 3.34. Moreover, in data set [1] (A→B), the recovery was 78%. Moreover, the recovery in data set [1] (B→A) worked out at 87%.
As for `CC#CCn1c(N2CCC[C@@H](N)C2)nc2c1c(=O)n(Cc1nc(C)c3ccccc3n1)c(=O)n2C` [linagliptin], the “aGLP-1 levels in the portal vein vs vehicle” value in data set [2] (monotherapy (RDX8940 30 mg/kg b.i.d.; linagliptin 10 mg/kg q.d.)) is “did not significantly affect”. Further, the “Systemic concentrations of aGLP-1 vs vehicle” value in data set [2] (monotherapy) is “did not significantly increase”. Besides, the “4-h fasted plasma insulin vs vehicle” value in data set [3] (day 29, agent alone) is “lowered”. Further, the “4-h fasted plasma glucose vs vehicle” value in data set [3] is “lowered”.
Regarding INT-777, the “Gallbladder emptying (gallbladder weight, egg yolk vs saline)” value with gallbladder emptying is “inhibition of gallbladder emptying”.
Turning to liraglutide, the “4-h fasted plasma insulin vs vehicle” value in data set [3] (day 29, agent alone) was “lowered”. Further, the Hepatic triglyceride levels entry in data set [3] (day 29, agent alone, RDX8940 P < 0.001) is “reduced”. In addition, in data set [3] (day 29, agent alone, RDX8940 P < 0.01), the Hepatic cholesterol levels entry is “reduced”. Further, in data set [3] (day 29, agent alone, RDX8940 P < 0.05), the Liver weight entry is reported as “reduced”. Also, the “4-h fasted plasma glucose vs vehicle” value in data set [3] is reported as “lowered”. In the data set with C57BL/6 mice fed HFCD, the “Hepatic total cholesterol content vs vehicle” value was “significantly decreased”, the “Hepatic triglyceride content vs vehicle” value is reported as “significantly decreased”, the “Hepatic weight vs vehicle” value is “significantly decreased” and the “Plasma ALT levels vs vehicle” value is given as “significantly decreased”. Further, in the data set on C57BL/6 mice fed HFCD, the “Plasma AP levels vs vehicle” value is “significantly decreased”, the “Plasma AST levels vs vehicle” value was “significantly decreased”, the Plasma glucose was 185 ± 13 mg/dL and the “Plasma total bilirubin levels” value is listed as “Neither liraglutide nor teduglutide significantly affected”. In the data set on C57BL/6 mice fed HFCD, this compound had a Plasma total cholesterol of 230 ± 16 mg/dL, a Plasma triglycerides of 59 ± 3 mg/dL, a Body weight of 31.4 ± 0.8 g and a Plasma insulin of 0.40 ± 0.11 ng/mL. The “HFCD-increased hepatic expression of genes involved in inflammation and fibrotic processes” value with C57BL/6 mice fed HFCD is on record as “abrogated this effect in many cases”. Moreover, in the data set on C57BL/6 mice fed HFCD (median), the Fibrosis score is on record as 2 and the Microvesicular steatosis score was 0.5 ^****.
For the compound teduglutide, in the data set on C57BL/6 mice fed HFCD, the “Hepatic total cholesterol content vs vehicle” value is “significantly decreased”, the “Hepatic triglyceride content vs vehicle” value is listed as “significantly decreased”, the “Hepatic weight vs vehicle” value is reported as “significantly decreased” and the “Plasma ALT levels vs vehicle” value is “significantly decreased”. In the data set with C57BL/6 mice fed HFCD, the “Plasma AP levels vs vehicle” value is given as “significantly decreased”, the “Plasma AST levels vs vehicle” value was “significantly decreased”, the Plasma glucose came to 205 ± 5 mg/dL and the “Plasma total bilirubin levels” value is recorded as “Neither liraglutide nor teduglutide significantly affected”. In the data set on C57BL/6 mice fed HFCD, this compound returned a Plasma total cholesterol of 279 ± 16 mg/dL, a Plasma triglycerides of 84 ± 1 mg/dL, a Body weight of 37.9 ± 0.9 g and a Plasma insulin of 0.95 ± 0.20 ng/mL. The “HFCD-increased hepatic expression of genes involved in inflammation and fibrotic processes” value in the data set with C57BL/6 mice fed HFCD is “abrogated this effect in many cases”. Further, in the data set on C57BL/6 mice fed HFCD (median), the Fibrosis score is given as 2, the Macrovesicular steatosis score is reported as 2.00 ^* and the Microvesicular steatosis score was found to be 2.0.

Values taken from paper PMC6459286, “Intestinal TGR5 agonism improves hepatic steatosis and insulin sensitivity in Western diet-fed mice” (American Journal of Physiology - Gastrointestinal and Liver …, 2019).
